Source: US20090074869A1, “PHARMACEUTICAL FORMULATIONS” (Schering Corporation, priority 2003, published 2009)

Columns and labels:
PDE V = PDE V (Homo sapiens, UniProt O76074); assay: PDE V inhibition; format: biochemical
[1] = solubility in water and wettability of the crystalline form; format: physicochemical
[2] = absorption and bioavailability tests in animals; format: in vivo

- effectiveness as a PDE V inhibitor (PDE V): particularly effective
- specificity for PDE isozyme (PDE V): specificity for the PDE V isozyme
- solubility in water [1]: poor
- wettability ([1]; crystalline form): poor
- absorption from the gastrointestinal tract ([2]; in vivo): slow
- bioavailability ([2]; tests conducted so far in animals): low
SMILES: CCn1c(=O)c2c(nc(N[C@@H]3CCC[C@H]3O)n2Cc2ccc(OC)c(Br)c2)n(CCO)c1=O [7-[(3-Bromo-4-methoxyphenyl)methyl]-1-ethyl-3,7-dihydro-8-[[(1R,2R)-2-hydroxycyclopentyl]amino]-3-(2-hydroxyethyl)-1H-purine-2,6-dione]
